The source of these data is PMC11062922 (Nature Chemical Biology, 2023).

In experiment [1] the test system is endogenous kinases and other proteins enriched by Kinobeads from mixed lysates of K-562, COLO-205, MV-4-11, SK-N-BE(2) and OVCAR-8. In words: Kinobeads competition binding profiling, two doses (100 nM and 1 µM).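 Also: inhibitor preincubated 45 min at 4 °C in cell lysate, then bead pulldown. Bound protein quantified by label-free mass spectrometry relative to DMSO vehicle control.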 To be noted: in words. More on the design: species or system human.
The target of the next experiment is T1, ACOX1 (Homo sapiens, UniProt Q15067).
T1 construct: endogenous in cells
T1 sequence (Q15067 1-660): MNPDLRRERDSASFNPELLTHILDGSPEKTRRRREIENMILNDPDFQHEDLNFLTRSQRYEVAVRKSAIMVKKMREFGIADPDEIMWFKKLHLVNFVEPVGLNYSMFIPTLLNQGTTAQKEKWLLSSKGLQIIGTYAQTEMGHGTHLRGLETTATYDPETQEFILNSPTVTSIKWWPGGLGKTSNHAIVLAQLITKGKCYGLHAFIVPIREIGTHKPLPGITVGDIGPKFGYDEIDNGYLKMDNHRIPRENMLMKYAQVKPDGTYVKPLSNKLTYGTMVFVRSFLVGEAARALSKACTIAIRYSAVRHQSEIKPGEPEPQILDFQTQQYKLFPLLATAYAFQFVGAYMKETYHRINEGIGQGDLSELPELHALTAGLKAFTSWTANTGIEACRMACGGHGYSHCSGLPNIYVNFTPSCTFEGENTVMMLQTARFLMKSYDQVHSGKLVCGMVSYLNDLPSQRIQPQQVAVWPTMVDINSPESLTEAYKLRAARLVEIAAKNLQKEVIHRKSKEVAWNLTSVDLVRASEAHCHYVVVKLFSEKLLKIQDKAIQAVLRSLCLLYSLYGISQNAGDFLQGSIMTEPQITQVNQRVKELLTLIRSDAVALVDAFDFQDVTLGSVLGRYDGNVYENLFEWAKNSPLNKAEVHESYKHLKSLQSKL
As to the kind of experiment: Kinobeads two-dose competition binding: ACOX1.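 As to all read-outs here: competition of compounds with immobilized broad-spectrum kinase inhibitor beads in cell lysate at 100 and 1,000 nM, 45 min at 4 °C, bead-bound protein quantified by label-free MS versus DMSO.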 Particulars: for CATDS: sheet CATDS matrix 2, Gene Name ACOX1.

Another experiment has as its target T2, AAK1 (Homo sapiens, UniProt Q2M2I8).
T2 construct: to maximize the representation of endogenous proteins; endogenous in cells
As to the kind of experiment: Kinobeads two-dose competition binding: AAK1.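 As to all read-outs here: kinobeads competition pulldown from cell lysate, compound preincubated 45 min at 4 °C, bead-bound protein measured by label-free mass spectrometry against DMSO vehicle control.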 To be noted: for potency estimated from few doses: sheet "Kinobeads Drugmatrix - all", unit inferred, same values below 1000 recur in sheet "nanomolar", read-out: Kinobeads Drugmatrix - all: apparent Kd, AAK1; for CATDS: sheet CATDS matrix 2, Gene Name AAK1.

For experiment [2], the target named is T3, ABL1 (Homo sapiens, UniProt P00519). As to the kind of experiment: Kinobeads two-dose competition binding: ABL1. To be noted: sheet "Kinobeads Drugmatrix - all"; unit inferred; read-out: Kinobeads Drugmatrix - all: apparent Kd, ABL1.
T3 sequence (P00519 28-1130 limits assumed): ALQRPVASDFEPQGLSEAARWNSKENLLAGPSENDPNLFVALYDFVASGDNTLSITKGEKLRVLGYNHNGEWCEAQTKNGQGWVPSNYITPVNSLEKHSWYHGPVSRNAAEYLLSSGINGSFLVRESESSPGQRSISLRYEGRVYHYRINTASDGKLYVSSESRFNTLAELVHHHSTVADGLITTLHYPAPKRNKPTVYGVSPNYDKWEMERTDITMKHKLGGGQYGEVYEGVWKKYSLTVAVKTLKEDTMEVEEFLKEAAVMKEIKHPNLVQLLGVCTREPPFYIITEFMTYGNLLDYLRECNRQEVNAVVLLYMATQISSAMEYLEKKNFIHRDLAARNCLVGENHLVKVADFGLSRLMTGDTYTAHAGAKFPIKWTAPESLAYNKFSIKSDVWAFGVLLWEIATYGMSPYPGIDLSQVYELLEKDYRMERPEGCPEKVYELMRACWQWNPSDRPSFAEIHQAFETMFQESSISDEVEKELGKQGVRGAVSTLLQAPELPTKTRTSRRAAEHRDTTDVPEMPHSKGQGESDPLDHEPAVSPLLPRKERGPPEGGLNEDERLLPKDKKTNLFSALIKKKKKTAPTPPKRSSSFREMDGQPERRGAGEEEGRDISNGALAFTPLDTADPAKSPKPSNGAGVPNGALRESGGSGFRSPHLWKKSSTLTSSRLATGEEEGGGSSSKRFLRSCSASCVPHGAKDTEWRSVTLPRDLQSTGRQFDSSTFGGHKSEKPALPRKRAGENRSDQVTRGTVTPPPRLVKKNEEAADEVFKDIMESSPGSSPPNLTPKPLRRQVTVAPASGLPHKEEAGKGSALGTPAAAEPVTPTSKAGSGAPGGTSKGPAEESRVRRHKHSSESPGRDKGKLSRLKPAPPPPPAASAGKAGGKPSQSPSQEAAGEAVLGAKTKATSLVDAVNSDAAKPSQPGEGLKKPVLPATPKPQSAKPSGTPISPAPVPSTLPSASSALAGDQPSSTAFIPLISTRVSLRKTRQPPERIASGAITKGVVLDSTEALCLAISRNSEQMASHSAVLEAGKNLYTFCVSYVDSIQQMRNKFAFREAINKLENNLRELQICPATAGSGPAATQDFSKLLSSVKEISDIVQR
For experiment [3], the target named is T4, ABL2 (Homo sapiens, UniProt P42684).
T4 construct: endogenous in cells
T4 sequence (P42684 whole entry): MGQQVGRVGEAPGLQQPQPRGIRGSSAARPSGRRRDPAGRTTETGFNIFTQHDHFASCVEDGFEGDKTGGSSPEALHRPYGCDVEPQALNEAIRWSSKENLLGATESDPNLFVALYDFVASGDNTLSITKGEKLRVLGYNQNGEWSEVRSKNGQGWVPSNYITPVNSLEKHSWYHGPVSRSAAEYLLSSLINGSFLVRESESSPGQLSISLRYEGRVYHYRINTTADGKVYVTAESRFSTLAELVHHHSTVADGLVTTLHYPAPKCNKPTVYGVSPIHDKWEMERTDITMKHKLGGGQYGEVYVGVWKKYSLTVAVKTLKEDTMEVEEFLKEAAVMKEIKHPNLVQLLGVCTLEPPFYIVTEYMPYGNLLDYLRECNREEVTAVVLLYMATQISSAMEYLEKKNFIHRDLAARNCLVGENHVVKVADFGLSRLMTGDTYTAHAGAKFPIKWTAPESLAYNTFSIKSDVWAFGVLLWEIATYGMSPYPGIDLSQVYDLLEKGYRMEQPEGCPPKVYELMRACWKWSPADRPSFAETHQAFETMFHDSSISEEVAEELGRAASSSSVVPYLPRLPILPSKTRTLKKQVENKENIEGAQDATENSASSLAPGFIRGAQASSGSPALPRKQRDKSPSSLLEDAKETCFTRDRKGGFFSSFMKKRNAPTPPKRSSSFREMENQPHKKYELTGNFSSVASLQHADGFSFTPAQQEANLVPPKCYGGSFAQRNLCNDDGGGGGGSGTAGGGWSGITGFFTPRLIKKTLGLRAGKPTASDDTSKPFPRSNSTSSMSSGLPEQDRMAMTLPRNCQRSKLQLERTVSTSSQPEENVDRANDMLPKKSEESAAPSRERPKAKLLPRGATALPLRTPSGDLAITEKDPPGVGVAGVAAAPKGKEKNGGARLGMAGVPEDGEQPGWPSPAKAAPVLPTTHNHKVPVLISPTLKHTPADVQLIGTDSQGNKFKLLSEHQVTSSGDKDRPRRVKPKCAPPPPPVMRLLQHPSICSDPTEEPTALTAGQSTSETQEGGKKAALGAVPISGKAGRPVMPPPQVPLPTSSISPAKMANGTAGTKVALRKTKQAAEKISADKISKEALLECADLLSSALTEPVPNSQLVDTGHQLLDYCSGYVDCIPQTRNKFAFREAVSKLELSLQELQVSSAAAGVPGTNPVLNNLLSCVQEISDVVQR
In words: Kinobeads two-dose competition binding: ABL2. Particulars: sheet "Kinobeads Drugmatrix - all"; unit inferred; read-out: Kinobeads Drugmatrix - all: apparent Kd, ABL2.

The target in experiment [4] is T5, ACAD11 (Homo sapiens, UniProt Q709F0).
T5 construct: endogenous in cells
T5 sequence (Q709F0 1-780): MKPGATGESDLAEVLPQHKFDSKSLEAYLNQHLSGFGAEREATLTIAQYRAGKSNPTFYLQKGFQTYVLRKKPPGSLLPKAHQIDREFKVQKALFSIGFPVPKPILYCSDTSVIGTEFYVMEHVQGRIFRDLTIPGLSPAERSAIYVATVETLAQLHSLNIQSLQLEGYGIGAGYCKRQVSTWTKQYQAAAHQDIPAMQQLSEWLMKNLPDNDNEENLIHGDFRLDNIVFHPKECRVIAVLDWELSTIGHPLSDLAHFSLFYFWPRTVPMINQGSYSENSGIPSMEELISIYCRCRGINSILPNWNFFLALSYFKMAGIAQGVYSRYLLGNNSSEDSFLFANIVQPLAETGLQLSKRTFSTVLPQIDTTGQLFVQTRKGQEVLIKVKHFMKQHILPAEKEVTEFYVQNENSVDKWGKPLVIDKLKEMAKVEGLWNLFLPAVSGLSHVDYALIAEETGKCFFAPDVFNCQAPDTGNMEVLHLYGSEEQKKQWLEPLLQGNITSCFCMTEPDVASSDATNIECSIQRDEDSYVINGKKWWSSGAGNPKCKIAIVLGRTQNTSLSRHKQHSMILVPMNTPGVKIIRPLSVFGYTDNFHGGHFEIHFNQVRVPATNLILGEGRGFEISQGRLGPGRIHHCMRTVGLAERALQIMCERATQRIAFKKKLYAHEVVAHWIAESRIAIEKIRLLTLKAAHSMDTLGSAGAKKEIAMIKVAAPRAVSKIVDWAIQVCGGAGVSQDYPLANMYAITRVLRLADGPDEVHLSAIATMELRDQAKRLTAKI
As to the kind of experiment: Kinobeads two-dose competition binding: ACAD11. Particulars: sheet "Kinobeads Drugmatrix - all"; unit inferred; read-out: Kinobeads Drugmatrix - all: apparent Kd, ACAD11.

Experiment [5] addresses T3, ABL1. In words: Kinobeads two-dose competition binding: ABL1. Particulars: sheet CATDS matrix 2; Gene Name ABL1.
In experiment [6] the target is T4, ABL2. In words: Kinobeads two-dose competition binding: ABL2. Particulars: sheet CATDS matrix 2; Gene Name ABL2.
Experiment [7] has as its target T5, ACAD11. As to the kind of experiment: Kinobeads two-dose competition binding: ACAD11. To be noted: sheet CATDS matrix 2; Gene Name ACAD11.
The target of a further experiment is T6, ABCD3 (Homo sapiens, UniProt P28288).
T6 construct: endogenous in cells
T6 sequence (P28288 1-659): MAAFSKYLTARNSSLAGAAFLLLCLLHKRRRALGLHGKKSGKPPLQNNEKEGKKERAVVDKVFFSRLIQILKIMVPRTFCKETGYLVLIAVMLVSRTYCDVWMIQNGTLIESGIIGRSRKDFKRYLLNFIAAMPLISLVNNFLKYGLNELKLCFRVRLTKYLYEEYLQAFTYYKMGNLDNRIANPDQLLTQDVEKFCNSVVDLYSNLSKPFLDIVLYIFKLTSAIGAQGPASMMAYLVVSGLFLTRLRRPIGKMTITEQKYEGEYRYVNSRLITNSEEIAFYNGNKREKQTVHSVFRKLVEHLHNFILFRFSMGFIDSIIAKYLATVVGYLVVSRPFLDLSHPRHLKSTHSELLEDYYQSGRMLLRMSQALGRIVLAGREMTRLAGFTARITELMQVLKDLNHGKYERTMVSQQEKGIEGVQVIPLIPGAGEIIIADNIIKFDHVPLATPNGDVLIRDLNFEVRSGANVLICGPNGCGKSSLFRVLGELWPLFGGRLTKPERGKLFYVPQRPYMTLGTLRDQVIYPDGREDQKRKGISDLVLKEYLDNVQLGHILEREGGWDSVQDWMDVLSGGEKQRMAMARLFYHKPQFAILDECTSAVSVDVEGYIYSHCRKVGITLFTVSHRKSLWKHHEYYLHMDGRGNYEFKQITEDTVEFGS
As to the kind of experiment: Kinobeads two-dose competition binding: ABCD3. To be noted: sheet "Kinobeads Drugmatrix - all"; unit inferred; read-out: Kinobeads Drugmatrix - all: apparent Kd, ABCD3.

Experiment [8] addresses T7, endogenous kinases and other proteins enriched by Kinobeads from mixed lysates of K-562, COLO-205, MV-4-11, SK-N-BE(2) and OVCAR-8 (Homo sapiens, UniProt O43353).
T7 construct: to maximize the representation of endogenous proteins; endogenous in cells
In words: Kinobeads competition binding profiling, two doses (100 nM and 1 µM).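 Also: inhibitor preincubated 45 min at 4 °C in cell lysate, then bead pulldown. Bound protein quantified by label-free mass spectrometry relative to DMSO vehicle control.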 To be noted: target RIPK2; read-out: apparent Kd.

The next experiment deals with FLT3. As to the kind of experiment: Kinobeads two-dose competition binding: FLT3. Further details: species or system human.
The next experiment addresses PKN3 (Homo sapiens, UniProt Q6P5Z2). More on the design: full-length PKN3, CSNK2A1 or CSNK2A2 ORF; host or cells: HEK293T. Particulars: reported for the most potent 4-anilinoquin(az)oline; cited from earlier work.
The test system of experiment [9] is IL-10 secretion in primary bone marrow-derived dendritic cells (BMDCs). As to the kind of experiment: IL-10 cytokine secretion assay (ELISA) in Zymosan-stimulated primary BMDCs. The class given is cell-based, mouse. Particulars: murine BMDCs, inhibitor 30 min before Zymosan stimulation. On the procedure: A subsequent full dose–response experiment confirmed potent and selective binding to SYK ( Kdapp = 58 nM, […] = 0.60; Extended Data Fig. 5a,b). […] One of the effects of Zymosan is that it activates Dectin-1 signaling, in turn activating SYK and leading to increased IL-10 cytokine production (Fig. 3c)[34]. Treatment of cells with the respective SYK inhibitors before Zymosan stimulation indeed led to decreased levels of IL-10 in a dose-dependent fashion (Fig. 3d). […] In line with the cytokine readout, we observed a dose depended reduction of pTyr525/526 indicating SYK inhibition in live cells (Fig. 3e and Extended Data Fig. 5c).
Primary BMDCs were obtained from 9-week-old C57BL/6 mice that were maintained under standard specific pathogen-free conditions. BMDCs were differentiated for 7 days in Roswell Park Memorial Institute medium (Gibco) and granulocyte-macrophage colony-stimulating factor. On day seven, BMDCs were seeded in 96-well plates at 10^5 cells per well in 100 µl of culture medium followed by incubation for 4 h at 37 °C. Subsequently, cells were incubated with SYK inhibitors for 30 min followed by stimulation with Zymosan (final concentration of 50 µg ml^−1; Invivogen) and dispersed in culture medium for 24 h. […] For cytokine secretion quantification, cell culture medium was collected and concentrations of IL-10 in the supernatant were determined using mouse enzyme-linked immunosorbent assay kits (IL-10: Invitrogen) according to the manufacturer’s protocol. Experiments were performed in biological triplicates.
(In general: An ELISA detects its analyte on a solid surface through an enzyme-linked reagent.)

The target in another experiment is T8, PAK4 (Homo sapiens, UniProt O96013).
T8 construct: a mixture of lysates from five cancer cell lines; endogenous in cells
T8 sequence (O96013 whole entry): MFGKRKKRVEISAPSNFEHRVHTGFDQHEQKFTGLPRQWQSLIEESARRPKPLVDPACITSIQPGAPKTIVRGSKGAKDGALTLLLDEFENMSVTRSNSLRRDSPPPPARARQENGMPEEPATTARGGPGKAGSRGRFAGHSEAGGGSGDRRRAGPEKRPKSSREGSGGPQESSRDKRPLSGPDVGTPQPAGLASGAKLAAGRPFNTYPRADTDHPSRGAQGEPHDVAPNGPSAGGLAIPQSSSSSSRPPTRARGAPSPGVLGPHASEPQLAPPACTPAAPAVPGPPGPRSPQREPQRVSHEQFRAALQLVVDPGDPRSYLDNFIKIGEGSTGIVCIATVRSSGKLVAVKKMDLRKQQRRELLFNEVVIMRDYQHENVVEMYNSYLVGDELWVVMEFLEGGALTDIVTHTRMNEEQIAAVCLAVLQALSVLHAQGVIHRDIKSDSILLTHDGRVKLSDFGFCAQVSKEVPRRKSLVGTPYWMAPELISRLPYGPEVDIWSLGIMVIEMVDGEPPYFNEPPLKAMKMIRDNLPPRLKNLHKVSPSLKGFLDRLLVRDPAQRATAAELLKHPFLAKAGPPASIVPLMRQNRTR
As to the kind of experiment: Kinobeads full dose-response competition binding: PAK4. To be noted: Gene Name PAK4, doses in nM.

A further experiment addresses T9, PRKCA (Homo sapiens, UniProt P17252).
T9 construct: endogenous in cells
In words: Kinobeads full dose-response competition binding: PRKCA. Particulars: Gene Name PRKCA, doses in nM.

The target in a further experiment is T10, GRK6 (Homo sapiens, UniProt P43250).
T10 construct: endogenous in cells
T10 sequence (P43250 whole entry): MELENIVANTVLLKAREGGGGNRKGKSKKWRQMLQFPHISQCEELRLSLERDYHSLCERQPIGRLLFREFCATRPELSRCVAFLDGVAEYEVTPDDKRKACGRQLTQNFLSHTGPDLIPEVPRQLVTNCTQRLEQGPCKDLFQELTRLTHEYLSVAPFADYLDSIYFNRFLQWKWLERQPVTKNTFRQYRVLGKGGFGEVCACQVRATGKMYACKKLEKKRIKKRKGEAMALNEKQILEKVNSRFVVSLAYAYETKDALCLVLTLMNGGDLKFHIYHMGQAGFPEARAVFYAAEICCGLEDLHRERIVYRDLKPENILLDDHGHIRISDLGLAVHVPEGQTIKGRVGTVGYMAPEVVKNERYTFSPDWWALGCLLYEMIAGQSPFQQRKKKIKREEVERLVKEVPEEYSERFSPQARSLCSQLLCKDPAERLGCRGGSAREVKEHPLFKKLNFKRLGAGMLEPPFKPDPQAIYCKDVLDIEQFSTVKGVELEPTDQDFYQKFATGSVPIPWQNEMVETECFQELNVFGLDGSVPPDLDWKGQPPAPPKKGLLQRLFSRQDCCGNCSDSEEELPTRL
As to the kind of experiment: Kinobeads two-dose competition binding: GRK6. To be noted: Kinobeads two-dose, Drugmatrix - all 2; read-out: apparent Kd GRK6.

The mark [10] stands for this setting: EC50 with Correction, read-out: apparent Kd.

T2 sequence (Q2M2I8 whole entry): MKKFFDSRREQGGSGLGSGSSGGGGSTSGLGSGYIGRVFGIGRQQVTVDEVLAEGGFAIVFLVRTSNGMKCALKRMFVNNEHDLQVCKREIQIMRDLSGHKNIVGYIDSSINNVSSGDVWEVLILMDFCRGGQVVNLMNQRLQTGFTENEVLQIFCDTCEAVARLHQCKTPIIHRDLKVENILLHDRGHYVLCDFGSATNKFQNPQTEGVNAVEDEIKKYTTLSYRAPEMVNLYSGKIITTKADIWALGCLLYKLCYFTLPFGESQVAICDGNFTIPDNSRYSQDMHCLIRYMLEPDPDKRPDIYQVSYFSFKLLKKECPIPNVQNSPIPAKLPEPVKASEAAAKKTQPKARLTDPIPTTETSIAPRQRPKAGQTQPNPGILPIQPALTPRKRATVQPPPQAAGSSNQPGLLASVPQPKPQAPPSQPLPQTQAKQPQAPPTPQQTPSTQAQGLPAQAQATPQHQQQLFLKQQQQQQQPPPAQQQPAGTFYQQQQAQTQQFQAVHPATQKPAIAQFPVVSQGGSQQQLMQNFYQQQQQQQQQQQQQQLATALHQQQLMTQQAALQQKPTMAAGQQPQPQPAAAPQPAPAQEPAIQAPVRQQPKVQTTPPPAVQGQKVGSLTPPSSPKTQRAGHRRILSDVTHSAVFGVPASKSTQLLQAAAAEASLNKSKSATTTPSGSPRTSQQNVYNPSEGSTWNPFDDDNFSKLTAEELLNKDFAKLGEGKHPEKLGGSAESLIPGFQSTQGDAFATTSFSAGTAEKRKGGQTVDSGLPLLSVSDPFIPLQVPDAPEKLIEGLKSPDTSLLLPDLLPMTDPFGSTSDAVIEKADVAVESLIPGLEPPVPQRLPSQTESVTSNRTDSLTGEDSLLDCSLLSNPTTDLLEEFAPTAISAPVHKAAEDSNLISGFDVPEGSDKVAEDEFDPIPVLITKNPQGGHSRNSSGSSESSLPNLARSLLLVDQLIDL

`NCC(C(=O)Nc1cc(Br)c(-c2ccnc3[nH]ccc23)s1)c1ccccc1` (centres unmarked) [GSK1269851A]: the “selectivity in the Kinobeads assay (CATDSmost potent)” value in [1] was “unselective”. The CATDS stood at 0 on ACOX1; 0.03418 on AAK1; 0 at ABL1 [5]; 0.01467 on ABL2 [6]; 0 on ACAD11 [7]. Besides, the potency estimated from few doses on AAK1 is 84.4 nM; at ABL1 [2], over 1000 nM; at ABL2 [3], 433 nM; on ACAD11 [4] it was over 1000 nM.

Take `COc1ccc(Nc2nccc(N3CCC(NC(=O)Nc4ccc5c(c4)OCO5)C3)n2)cc1` (centres unmarked) [GSK1379745A]: the CATDS on ACOX1, at AAK1, on ABL1 [5], on ABL2 [6] and on ACAD11 [7] was 0 in each case. The potency estimated from few doses at ABCD3 was over 1000 nM.

Turning to `CNC(=O)c1cncc(/C=C/c2c(Cl)cccc2Cl)c1` [GW445014X], the potency estimated from few doses in experiment [8] was 773 nM.

For `O=c1[nH]ccc2nc(N[C@@H]3CCNC3)nc(Nc3ccc4c(c3)S(=O)(=O)CC4)c12` [GSK2181306A], the CATDS on ACOX1 is recorded as 0; on AAK1 it was 0.01021; at ABL1 [5], 0; at ABL2 [6] it was 0; at ACAD11 [7] it was 0.02228. Moreover, the potency estimated from few doses was 800 nM on AAK1 and 145 nM at ACAD11 [4].

As for `CCn1cc(-c2ccnc3[nH]c(-c4cccc(CN(C)C)c4)cc23)c(-c2ccc(NC(=O)N(C)C)cc2)n1` [GSK1070916], the CATDS at ACOX1, on AAK1, on ABL1 [5], on ABL2 [6] and at ACAD11 [7] was 0 each time. Moreover, at ABCD3, the potency estimated from few doses is over 1000 nM.

Turning to `Cc1cc(-c2ccnc(Nc3cccc(C#N)c3)n2)cc(C)c1O` [GSK1440913A], the CATDS at ACOX1 was 0; at AAK1 it was 0.2295; at ABL1 [5], 0; at ABL2 [6], 0; on ACAD11 [7], 0.1181. For the same compound, the figures for the potency estimated from few doses on AAK1 and on ACAD11 [4] were 120 nM and 425 nM, respectively.

`CCc1nc(-c2cccc(N(C)S(=O)(=O)c3ccccc3)c2)c(-c2ccnc(Nc3ccc(N4CCN(C(C)=O)CC4)nc3)n2)s1` [GSK1645895A]: the CATDS at ACOX1, at AAK1, at ABL1 [5], on ABL2 [6] and at ACAD11 [7] was 0 throughout. The potency estimated from few doses at ABCD3 is over 1000 nM.

Consider `O=C1Nc2ccc(F)cc2/C1=C/c1ccc[nH]1` [RO0272148-000], for which the potency estimated from few doses with FLT3 (Kinobeads two-dose (100 nM and 1 µM), mixed cell lysate, read-out: Kdapp FLT3) was 99 nM; on ACOX1 (Kinobeads two-dose, mixed cell lysate, read-out: Kdapp ACOX1), over 1000 nM. Moreover, the CATDSFLT3 with FLT3 (selectivity score from Kinobeads two-dose data) came to 0.87.

With `COc1cc(Nc2ccnc3cc(I)ccc23)cc(OC)c1OC` [UNC-CA94], the “in-cell target engagement PKN3” value on PKN3 is given as 1.3 µM.

As usually defined, the EC50 is the midpoint of the concentration-response curve. Lower therefore signals a more potent agent. For `Cc1cccc(Nc2nc(N[C@H]3CCCC[C@H]3N)ncc2C(N)=O)c1` [GSK986310C], the IL-10 levels entry in [9] is “dose-dependent reduction”. In addition, the Kd on PAK4 (setting [10]) came to 65.9 nM; on PRKCA (setting [10]), 272 nM. Also, the EC50 at PAK4 (eight-dose curve fit) was found to be 135 nM; at PRKCA (eight-dose curve fit), 446 nM.

For `c1ccc(-c2cnc3nccnn23)cc1` [AH20685XX], the potency estimated from few doses at GRK6 was over 1000 nM.
